In US10239838B2, “Heteroaryl orexin receptor antagonists” (Merck Sharp & Dohme Corp., priority 2014, dated 2019) one finds IC50 data, which are given here for 28 molecules.

Assay [1] has as its target human orexin-2 receptor (Homo sapiens (Human), UniProt O43614). The assay is described as follows: FLIPR Ca2+ Flux Assay, orexin-2 receptor. It counts as cell-based. To be noted: CHO cells expressing the human orexin-2 receptor; agonist 70 pM Ala-6,12 orexin-A; read-out: hOX2R FLIPR IC50. Here is the method:
In a typical experiment the OX1 and OX2 receptor antagonistic activity of the compounds of the present invention was determined in accordance with the following experimental method. For intracellular calcium measurements, Chinese hamster ovary (CHO) cells expressing the rat orexin-1 receptor or the human orexin-2 receptor, are grown in Iscove's modified DMEM containing 2 mM L-glutamine, […], 1% hypoxanthine-thymidine supplement, 100 U/ml penicillin, 100 μg/ml streptomycin and 10% heat-inactivated fetal calf serum (FCS). The cells are seeded at 20,000 cells/well into Becton-Dickinson black 384-well clear bottom sterile plates coated with poly-D-lysine. All reagents were from GIBCO-Invitrogen Corp. The seeded plates are incubated overnight at 37° C. and 5% CO2. Ala-6,12 human orexin-A as the agonist is prepared as a 1 mM stock solution in 1% bovine serum albumin (BSA) and diluted in assay buffer (HBSS containing 20 mM HEPES, 0.1% BSA and 2.5 mM probenecid, pH7.4) for use in the assay at a final concentration of 70 pM. Test compounds are prepared as 10 mM stock solution in DMSO, then diluted in 384-well plates, first in DMSO, then assay buffer. On the day of the assay, cells are washed 3 times with 100 μl assay buffer and then incubated for 60 min (37° C., 5% CO2) in 60 μl assay buffer containing 1 μM Fluo-4 AM ester, 0.02% pluronic acid, and 1% BSA. The dye loading solution is then aspirated and cells are washed 3 times with 100 μl assay buffer. 30 μl of that same buffer is left in each well. Within the Fluorescent Imaging Plate Reader (FLIPR, Molecular Devices), test compounds are added to the plate in a volume of 25 μl, incubated for 5 min and finally 25 μl of agonist is added. Fluorescence is measured for each well at 1 second intervals for 5 minutes and the height of each fluorescence peak is compared to the height of the fluorescence peak induced by 70 pM Ala-6,12 orexin-A with buffer in place of antagonist. […] Alternatively, compound potency can be assessed by a radioligand binding assay (described in Bergman et. al. Bioorg. Med. Chem. Lett. 2008, 18, 1425-1430) in which the inhibition constant (Ki) is determined in membranes prepared from CHO cells expressing either the OX1 or OX2 receptor. The intrinsic orexin receptor antagonist activity of a compound which may be used in the present invention may be determined by these assays.
In general terms: Calcium flux is commonly read through the fluorescence of an indicator in the cells.

Assay [2] addresses hOX1R (Homo sapiens, UniProt O43613). The assay is described as follows: FLIPR Ca2+ Flux Assay, orexin-1 receptor. The format is cell-based. The conditions noted are these: CHO cells expressing orexin-1 receptor; agonist 70 pM Ala-6,12 orexin-A.

human orexin-2 receptor, sequence (O43614 whole entry): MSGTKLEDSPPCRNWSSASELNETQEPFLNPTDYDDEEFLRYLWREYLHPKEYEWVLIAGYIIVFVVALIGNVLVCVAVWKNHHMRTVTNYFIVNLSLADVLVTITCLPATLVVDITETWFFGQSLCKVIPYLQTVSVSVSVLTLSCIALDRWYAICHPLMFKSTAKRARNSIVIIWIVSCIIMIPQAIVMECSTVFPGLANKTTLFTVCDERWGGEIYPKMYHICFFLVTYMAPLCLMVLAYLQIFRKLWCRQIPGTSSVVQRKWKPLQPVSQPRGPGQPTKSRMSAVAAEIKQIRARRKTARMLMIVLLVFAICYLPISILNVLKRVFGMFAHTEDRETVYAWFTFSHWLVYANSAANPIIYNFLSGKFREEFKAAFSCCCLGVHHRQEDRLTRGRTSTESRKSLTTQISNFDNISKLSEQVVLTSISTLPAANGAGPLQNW

Take `CCN(CCc1ccc(C(C)(C)O)cn1)C(=O)c1ccccc1-n1nccn1` [Example 35, N-Ethyl-N-{2-[5-(1-hydroxy-1-methylethyl)pyridin-2-yl]ethyl}-2-(2H-1,2,3-triazol-2-yl)benzamide]: the concentration for half-maximal inhibition (IC50) (as a rule, the concentration at which inhibition is half-maximal) in assay [1] was 50 nM; in assay [2], above 10000 nM.

Consider `CCN(CCc1ccc(C(C)(C)O)cn1)C(=O)c1ccccc1C1CCC1` [Example 62, 2-cyclobutyl-N-ethyl-N-{2-[5-(1-hydroxy-1-methylethyl)pyridin-2-yl]ethyl}benzamide], for which the IC50 in assay [1] is 62 nM; in assay [2], above 10000 nM.

Take `CCN(CCc1cncc(C(C)(C)O)c1)C(=O)c1ccccc1-n1nccn1` [Example 38, N-Ethyl-N-{2-[5-(1-hydroxy-1-methylethyl)pyridin-3-yl]ethyl}-2-(2H-1,2,3-triazol-2-yl)benzamide]: the values for the IC50 in assay [1] and in assay [2] were 152 nM and above 10000 nM, respectively.

Regarding `CCN(CCc1ccc(C(C)(C)O)cn1)C(=O)c1ccc(F)cc1-n1nccn1` [Example 61, N-ethyl-4-fluoro-N-{2-[5-(1-hydroxy-1-methylethyl)pyridin-2-yl]ethyl}-2-(2H-1,2,3-triazol-2-yl)benzamide], the IC50 in assay [1] was 26 nM; in assay [2] it was above 10000 nM.

Take `CCN(CCc1ccc(C(C)(C)O)cn1)C(=O)c1cccnc1-c1ccccc1` [Example 58, N-ethyl-N-{2-[5-(1-hydroxy-1-methylethyl)pyridin-2-yl]ethyl}-2-phenylpyridine-3-carboxamide]: the half-inhibitory concentration (IC50) in assay [1] is 334 nM; in assay [2], above 10000 nM.

Take `CCN(CCc1cccc(C(C)(C)O)n1)C(=O)c1ccccc1OCC(F)F` [Example 20, 2-(2,2-difluoroethoxy)-N-ethyl-N-(2-(6-(2-hydroxypropan-2-yl)pyridin-2-yl)ethyl)benzamide]: the values for the IC50 in assay [1] and in assay [2] were 136 nM and above 10000 nM, respectively.

On to `CCN(CCc1cccc(C(C)(C)O)n1)C(=O)c1cccnc1OCC(F)(F)F` [Example 10, N-ethyl-N-{2-[6-(1-hydroxy-1-methylethyl)pyridin-2-yl]ethyl}-2-(2,2,2-trifluoroethoxy)pyridine-3-carboxamide], for which the figures for the IC50 in assay [1] and in assay [2] were 69 nM and above 10000 nM, respectively.

With `CCCc1ccccc1C(=O)N(CC)CCc1cccc(C(C)(C)O)n1` [Example 16, N-ethyl-N-(2-(6-(2-hydroxypropan-2-yl)pyridin-2-yl)ethyl)-2-propylbenzamide], the IC50 is 104 nM in assay [1] and above 10000 nM in assay [2].

In the case of `CCN(CCc1cccc(C(C)(C)O)n1)C(=O)c1ccccc1CC(F)F` [Example 23, 2-(2,2-difluoroethyl)-N-ethyl-N-(2-(6-(2-hydroxypropan-2-yl)pyridin-2-yl)ethyl)benzamide], the values for the concentration for half-maximal inhibition (IC50) in assay [1] and in assay [2] were 142 nM and above 10000 nM, respectively.

For `CCN(CCc1ccc(C(C)(C)O)cn1)C(=O)c1ccccc1OC(F)(F)F` [Example 50, N-ethyl-N-{2-[5-(1-hydroxy-1-methylethyl)pyridin-2-yl]ethyl}-2-(trifluoromethoxy)benzamide], the IC50 in assay [1] was 239 nM; in assay [2], above 10000 nM.

As for `CCN(CCc1cccc(C(C)(C)O)n1)C(=O)c1ccccc1-n1ncnn1` [Example 29, N-ethyl-N-(2-(6-(2-hydroxypropan-2-yl)pyridin-2-yl)ethyl)-2-(2H-tetrazol-2-yl)benzamide], the 50% inhibitory concentration (IC50) in assay [1] is 146 nM; in assay [2], above 10000 nM.

`CCOc1ccccc1C(=O)N(CC)CCc1ccc(C(C)(C)O)cn1` [Example 57, 2-ethoxy-N-ethyl-N-{2-[5-(1-hydroxy-1-methylethyl)pyridin-2-yl]ethyl}benzamide]: the 50% inhibitory concentration (IC50) in assay [1] was 547 nM; in assay [2], above 10000 nM.

For `CCN(CCc1cccc(C(C)(C)O)n1)C(=O)c1ccccc1N1CCCC1` [Example 28, N-ethyl-N-(2-(6-(2-hydroxypropan-2-yl)pyridin-2-yl)ethyl)-2-(pyrrolidin-1-yl)benzamide], the half-inhibitory concentration (IC50) was 88 nM in assay [1] and above 10000 nM in assay [2].

Turning to `CCN(CCc1ncc(C(C)(C)O)cn1)C(=O)c1ccccc1-n1nccn1` [Example 41, N-Ethyl-N-(2-(5-(2-hydroxypropan-2-yl)pyrimidin-2-yl)ethyl)-2-(2H-1,2,3-triazol-2-yl)benzamide], the figures for the 50% inhibitory concentration (IC50) in assay [1] and in assay [2] were 86 nM and 3230 nM, respectively.

As to `CCN(CCc1ccc(C(C)(C)O)cn1)C(=O)c1ccccc1CC(F)(F)F` [Example 54, N-ethyl-N-{2-[5-(1-hydroxy-1-methylethyl)pyridin-2-yl]ethyl}-2-(2,2,2-trifluoroethyl)benzamide], the 50% inhibitory concentration (IC50) in assay [1] was 440 nM; in assay [2] it was above 10000 nM.

With `CCN(CCc1ccc(C(C)(C)O)cn1)C(=O)c1cccnc1-n1cccn1` [Example 49, N-Ethyl-N-{2-[5-(1-hydroxy-1-methylethyl)pyridin-2-yl]ethyl}-2-(1H-pyrazol-1-yl)pyridine-3-carboxamide], the half-maximal inhibitory concentration (IC50) is 252 nM in assay [1] and above 10000 nM in assay [2].

Take `CCN(CCc1cccc(C(C)(C)O)n1)C(=O)c1cccnc1-n1cccn1` [Example 24, N-ethyl-N-(2-(6-(2-hydroxypropan-2-yl)pyridin-2-yl)ethyl)-2-(1H-pyrazol-1-yl)nicotinamide]: the concentration for half-maximal inhibition (IC50) is 36 nM in assay [1] and above 10000 nM in assay [2].

With `CCOc1ncccc1C(=O)N(CC)CCc1cccc(C(C)(C)O)n1` [Example 6, 2-ethoxy-N-ethyl-N-{2-[6-(1-hydroxy-1-methylethyl)pyridin-2-yl]ethyl}pyridine-3-carboxamide], the IC50 in assay [1] was 206 nM; in assay [2], above 10000 nM.

As to `CCN(CCc1ccnc(C(C)(C)O)n1)C(=O)c1ccccc1-n1nccn1` [Example 40, N-Ethyl-N-(2-(2-(2-hydroxypropan-2-yl)pyrimidin-4-yl)ethyl)-2-(2H-1,2,3-triazol-2-yl)benzamide], the IC50 in assay [1] was 74 nM; in assay [2], above 10000 nM.

`CCCc1ccccc1C(=O)N(CC)CCc1ccc(C(C)(C)O)cn1` [Example 52, N-ethyl-N-{2-[5-(1-hydroxy-1-methylethyl)pyridin-2-yl]ethyl}-2-propylbenzamide] displayed an IC50 in assay [2] above 10000 nM.

For the molecule `CCN(CCc1cccc(C(C)(C)O)n1)C(=O)c1ccccc1-n1cccn1` [Example 12, N-ethyl-N-{2-[6-(1-hydroxy-1-methylethyl)pyridin-2-yl]ethyl}-2-(1H-pyrazol-1-yl)benzamide], the half-maximal inhibitory concentration (IC50) is 66 nM in assay [1] and above 10000 nM in assay [2].

Consider `CCN(CCc1ccc(C(C)(C)O)cn1)C(=O)c1ccccc1C1CC1` [Example 60, 2-cyclopropyl-N-ethyl-N-{2-[5-(1-hydroxy-1-methylethyl)pyridin-2-yl]ethyl}benzamide], for which the concentration for half-maximal inhibition (IC50) was 244 nM in assay [1] and above 10000 nM in assay [2].

Turning to `CCN(CCc1ccc(C(C)(C)O)cn1)C(=O)c1ccccc1N1CCCC1` [Example 51, N-ethyl-N-{2-[5-(1-hydroxy-1-methylethyl)pyridin-2-yl]ethyl}-2-pyrrolidin-1-ylbenzamide], the concentration for half-maximal inhibition (IC50) was 76 nM in assay [1] and above 10000 nM in assay [2].

As to `CCN(CCc1cnc(C(C)(C)O)cn1)C(=O)c1ccccc1-n1nccn1` [Example 46, N-Ethyl-N-(2-(5-(2-hydroxypropan-2-yl)pyrazin-2-yl)ethyl)-2-(2H-H-1,2,3-triazol-2-yl)benzamide], the IC50 in assay [1] is 170 nM; in assay [2], above 10000 nM.

As for `CCN(CCc1cccc(C(C)(C)O)n1)C(=O)c1ccc(OC)nc1C1CC1` [Example 19, 2-cyclopropyl-N-ethyl-N-(2-(6-(2-hydroxypropan-2-yl)pyridin-2-yl)ethyl)-6-methoxynicotinamide], the concentration for half-maximal inhibition (IC50) in assay [1] worked out at 16 nM.

With `CCN(CCc1cccc(C(C)(C)O)n1)C(=O)c1ccccc1-n1nccn1` [Example 4, N-Ethyl-N-{2-[6-(1-hydroxy-1-methylethyl)pyridin-2-yl]ethyl}-2-(2H-1,2,3-triazol-2-yl)benzamide], in assay [1], the half-maximal inhibitory concentration (IC50) amounted to 15 nM.

With `CCN(CCc1cccc(C(C)(C)O)n1)C(=O)c1ccccc1C1CCC1` [Example 25, 2-cyclobutyl-N-ethyl-N-(2-(6-(2-hydroxypropan-2-yl)pyridin-2-yl)ethyl)benzamide], the concentration for half-maximal inhibition (IC50) in assay [1] came to 34 nM.

As to `CCN(CCc1cccc(C(C)(C)O)n1)C(=O)c1ccccc1CC(F)(F)F` [Example 18, N-ethyl-N-(2-(6-(2-hydroxypropan-2-yl)pyridin-2-yl)ethyl)-2-(2,2,2-trifluoroethyl)benzamide], the IC50 in assay [2] was above 10000 nM.
